Reference: patent publication US10258599B2, “Compounds for use in the prevention or treatment of cancer” (SEMMELWEIS UNIVERSITY, priority 2014, dated 2019)
Entries after “also recorded” stand apart in the source; their conditions may differ.

What was measured:
MAO-B = biological target: T1, MAO-B (Rattus norvegicus, UniProt P19643); conditions: in vivo; cited from earlier work
T1 construct: from tissue; host or cells: brain, in vivo dosing
T1 sequence (P19643 1-520): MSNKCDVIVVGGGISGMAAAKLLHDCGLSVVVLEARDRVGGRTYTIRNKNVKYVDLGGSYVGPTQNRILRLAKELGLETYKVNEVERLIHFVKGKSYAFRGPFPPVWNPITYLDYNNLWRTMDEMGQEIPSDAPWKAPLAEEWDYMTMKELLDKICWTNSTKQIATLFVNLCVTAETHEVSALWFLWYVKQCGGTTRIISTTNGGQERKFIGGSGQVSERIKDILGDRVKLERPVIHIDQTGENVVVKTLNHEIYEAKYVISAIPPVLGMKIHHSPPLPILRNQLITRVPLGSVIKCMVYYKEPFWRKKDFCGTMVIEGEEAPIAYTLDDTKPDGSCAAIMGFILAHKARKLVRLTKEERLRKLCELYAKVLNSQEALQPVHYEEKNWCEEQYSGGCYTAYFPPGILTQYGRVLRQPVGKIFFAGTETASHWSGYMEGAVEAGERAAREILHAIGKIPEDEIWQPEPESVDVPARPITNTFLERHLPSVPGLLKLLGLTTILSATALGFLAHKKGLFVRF

lung carcinoma = test: Longevity study on FVB/N mice: spontaneous lung carcinoma at autopsy; assay type: in vivo, mouse; conditions: for Number of detected lung carcinoma: 18-month, 4 dissected mice
Method: Body weight is measured bimonthly.
For monitoring, we planned to sacrifice mice from each group at 6-month, 1-year, 1.5-year and 2-year time-points; the rest of the animals are kept until spontaneous death.
The results are shown in Table 4 and on FIGS. 19 and 20. Significance levels were calculated with two-sided Chi-square test.

[1] = test system: mouse lung adenocarcinoma tumors; test: Mouse lung adenocarcinoma xenograft model in Balb/c nude mice; assay type: in vivo
Method: Mouse primary lung adenocarcinoma tumors maintained subcutaneously were utilized in the present study. Tumors with sizes of 3 mm in diameter were implanted subcutaneously in a total of 18 FVB/N female mice with a bodyweight of 25 g. From the day after tumor inoculation, 6-6 animals started receiving (−)-BPAP daily as a subcutaneous injection at a concentration of either 0.0001 mg/kg (low dose) or 0.05 mg/kg (high dose). Tumor sizes were measured twice a week using a digital caliper. Tumor volumes were calculated by the following formula: […]
Statistical analyses were made by Graphpad Prism 4.03 software. Significances of changes between control and (−)-BPAP-treated groups were assessed by using Mann-Whitney U-test. Significance was declared at the standard p<0.05 level.
Next, the same experiment was repeated using 18 Balb/c nude mice to explore whether the adaptive immune system plays a role in the tumor suppressor action of (−)-BPAP.

isolated rat brain stem = conditions: optimal concentration for the specific enhancer effect, 3-min collection period; review Knoll, 2005; cited from earlier work
[2] = test system: catecholaminergic neurons; test: Shuttle box: antagonism of tetrabenazine-induced learning deficit (conditioned avoidance reflex); assay type: in vivo, rat
Method: In a modified version of the shuttle box the acquisition of a two-way conditioned avoidance reflex (CAR) was analyzed during 5 consecutive days. The rat was put in a box divided inside into two parts by a barrier with a small gate in the middle, and the animal was trained to cross the barrier under the influence of a conditioned stimulus (CS, light flash). […] One trial consisted of 10 s intertrial interval, followed by 20 s CS. The last 5 s of CS overlaped the 5 s US. At each learning session, the number of CARs, EFs and intersignal reactions (IRs) are automatically counted and evaluated by multi-way ANOVA.
Tetrabenazine-treatment (1 mg/kg s.c.) depletes at least 90% of norepinephrine and dopamine from their stores in the nerve terminals of the catecholaminergic neurons in the brain stem. Due to the weak performance of the catecholaminergic brain engine, the activation of the cortical neurons remains below the level required for the acquisition of a CAR. The learning deficit caused by tetrabenazine-treatment can be antagonized by the administration of a synthetic CAE substance or an A-type MAO inhibitor, whereas selective inhibition of B-type MAO or inhibition of the reuptake of catecholamines and/or serotonin is ineffective (Knoll et al., 1992).

[3] = test system: isolated locus coerulei of rats; conditions: Knoll et al., 1999, Miklya, Knoll B, 2002; cited from earlier work
fibromyxosarcoma = test: Longevity study: manifestation of subcutaneous fibromyxosarcoma (TMS effect); assay type: in vivo, rat; conditions: for tumor manifestation suppressing (TMS) effect versus saline: Kaplan-Meier, P<0.001
Method: The longevity study was performed on 200 male rats received from the breeding colony of the Semmelweis University. The rats were born at the end of February of 2010. After 2-month acclimation period the rats were divided randomly into 5 even groups. The longevity study started at the beginning of May 2010. Animals were observed until their natural deaths. The data in this study represent the changes observed until Oct. 31, 2012, since in the saline-treated group the last animal died on Oct. 31, 2012. As will be shown later a few rats in the enhancer-treated groups were still alive on Nov. 1, 2012.
During the longevity study 5 rats were housed together in polycarbonate cages (height: 18 cm; wide: 42 cm; length: 44 cm) with a stainless steel on the top. Cage bedding was renewed 3 times a week (Monday, Wednesday and Friday). Bodyweight was measured once every month. The treatment started at the end of the second month of their age.
We carefully observed the appearance of the subcutaneous tumor and followed the development of the tumor until death. Histological analysis was performed post mortem on several rats taken from each group as examples.
The subcutaneous tumors developed in the rats were measured by the two largest diameters. After sacrificing the animals, the tumors were removed, photographs were taken. Tissues were fixed immediately after removal in 10% neutral formalin (in PBS, pH7.0) for 24 hours at room temperature, dehydrated and embedded in paraffin. 3-4 micrometer thick sections were cut and stained by hematoxylin and eosin (HE) as a routine.
Significance in the performance between the groups in the shuttle box was evaluated by multi-factor analysis of variance (ANOVA). Significance regarding the span of time from tumor manifestation until death in rats and regarding aging related changes in bodyweight treated chronically with the enhancer substances was analyzed by One-way ANOVA. Statistical analysis of survival rate and tumor manifestation was performed by the Kaplan-Meier method.

[4] = shuttle box, 1 mg/kg tetrabenazine s.c.

In the case of `CCCN[C@H](CCC)Cc1cc2ccccc2o1` [(−)-BPAP, (2R)-1-(1-benzofuran-2-yl)-N-propylpentane-2-amine], the MAO-B inhibitory potency (MAO-B) is given as “devoid of MAO-B inhibitory potency”, the “Number of detected lung carcinoma” value (lung carcinoma; 0.0001 mg/kg daily) is given as 0 and the “Number of detected lung carcinoma” value (lung carcinoma; 0.05 mg/kg daily) is given as 1. The “manifestation of lung carcinoma” value (lung carcinoma; extremely low dose (0.0001 mg/kg), 1.5-year (FIG. 20)) was “completely prevented the manifestation of lung carcinoma”, the “tumor size versus control” value ([1]; high dose 0.05 mg/kg s.c. daily) was “did not cause significant changes in tumor size” and the “tumor growth (tumor volume) versus control” value ([1]; low dose 0.0001 mg/kg s.c. daily) was “significant inhibition of tumor growth”. For the same molecule, the “released amount of labeled transmitter ([3H]-norepinephrine, [3H]-dopamine or [3H]-serotonin)” value (isolated rat brain stem) was “significantly higher”, the “effect on tetrabenazine-induced learning deficit” value ([2]; 0.0001 mg/kg (FIG. 4)) was “antagonizing the tetrabenazine-induced learning deficit” and the “dose with the non-specific enhancer effect selected for the longevity study” value [2, 4] was 50 µg/kg. The “optimal dose that exerted the specific enhancer effect” value [2, 4] was 0.1 µg/kg, the “very high dose range effective in antagonizing the tetrabenazine-induced learning deficit (MAO-A inhibition)” value [2, 4] was 2000 to 10000 µg/kg and the “concentration range of the specific enhancer effect on noradrenergic neurons” value [3] was “femto/picomolar”. For the same molecule, the “tumor manifestation suppressing (TMS) effect versus saline” value (fibromyxosarcoma; 0.0001 mg/kg) was “significantly decreased; also recorded: more potent in suppressing tumor manifestation than 0.1 mg/kg (−)-deprenyl”, the “tumor manifestation suppressing (TMS) effect versus saline” value (fibromyxosarcoma; 0.0001 mg/kg, listed as BPAP) was “highly efficient; also recorded: suppressed the manifestation of the fibromyxosarcoma significantly” and the “month of age in which the first animal manifested the tumor” value (shortened to “month of age”) (fibromyxosarcoma; 0.0001 mg/kg, N=40) was 20 month. The “rats in the group manifested the tumor to the end of the 32nd month” value (fibromyxosarcoma; 0.0001 mg/kg, N=40) was 8 rats, the “rats manifested the fibromyxosarcoma when the group completed the 30th month of life” value (fibromyxosarcoma; 0.0001 mg/kg, N=40) was 8 rats and the “month of age” value (fibromyxosarcoma; 0.0001 mg/kg, N=40, listed as BPAP) was 25 month. For the same molecule, the “tumor manifestation suppressing (TMS) effect versus saline” value (fibromyxosarcoma; 0.05 mg/kg) was “significantly decreased”, the “tumor manifestation suppressing (TMS) effect versus saline” value (fibromyxosarcoma; 0.05 mg/kg, listed as BPAP) was “suppressed the manifestation of the fibromyxosarcoma significantly” and the “month of age” value (fibromyxosarcoma; 0.05 mg/kg, N=40) was 13 month. The “rats in the group manifested the tumor to the end of the 32nd month” value (fibromyxosarcoma; 0.05 mg/kg, N=40) was 7 rats, the “rats manifested the tumor when the group completed the 30th month of life” value (fibromyxosarcoma; 0.05 mg/kg, N=40) was 7 rats and the “span of time from tumor manifestation until death” value (fibromyxosarcoma; chronic treatment, versus saline (FIG. 13), One-way ANOVA) was “no significant difference”.
